Assay results published in patent US6608176B2, “Taste receptor for umami (monosodium glutamate) taste” (University of Miami, priority 2000, dated 2003).
Where two headings read alike, the source gives them in different places.

Assays:
brain-mGluR4 [1] = molecular target: T1, brain-mGluR4 (Rattus norvegicus, UniProt P31423); assay: Suppression of forskolin-stimulated cAMP in CHO cells stably expressing brain-mGluR4; format: cell-based
T1 construct: Full-length cDNAs for brain-mGluR4 and taste-mGluR4 were reconstructed; expressed in transfected cells
Procedure: (§1) CHO cells were transfected with brain-mGluR4 and taste-mGluR4 constructs and with non-recombinant pcDNA3.1 vector, all in parallel, using a cationic lipid, DMRIE-C (Gibco-BRL). Cells with stably integrated plasmid were selected and maintained in 300 μg per ml G418 starting 24 h after transfection. The medium consisted of Dulbecco's Modified Eagle Medium (D-MEM) supplemented with 10% fetal bovine serum, 2 mM glutamine, 1.7 mM proline and 100 units per ml penicillin-streptomycin^35. Clones were lifted within two weeks and screened for expression by western blot analysis. A single clone for each form was propagated for functional assays. Stably transfected but non-clonal lines of cells from independent transfections with both forms of mGluR4 and non-recombinant vector were also maintained and used in functional assays.
(§2) CHO cells, stably transfected with brain-mGluR4, taste-mGluR4 or non-recombinant pcDNA3.1, were maintained as sub-confluent cultures and refed every two days to minimize chronic stimulation of expressed receptors by glutamate released from dead cells. Cells were plated 20 h before assay in a 96-well microtiter plate at 2×10^4 cells per 200 μl well. Fresh medium was replaced for one hour immediately before assaying receptor function as described^35. Briefly, cells were incubated in Dulbecco's phosphate buffered saline containing 1 mM IBMX for 20 min followed by stimulation for 10 min in 10 μM forskolin and 1 mM IBMX, with or without agonists. Stimulation buffer was rapidly removed, and cells were lysed in 200 μl 0.25% dodecyltrimethyl-ammonium bromide in 50 mM acetate buffer (Amersham, Piscataway, N.J.). Released cAMP in 20% of each lysate was assayed directly using an Amersham EIA-based kit and plotted as mean±s.e. of 3-6 experiments, each performed with triplicate wells of cells.
(§3) In transfected CHO cells, activation of group III mGluRs leads to a suppression of forskolin-stimulated cAMP synthesis^35. […] Thus, two separate lines of CHO cells expressing taste-mGluR4 were examined.

taste-mGluR4 = molecular target: T2, taste-mGluR4 (Rattus norvegicus, UniProt P31423); assay: Suppression of forskolin-stimulated cAMP in CHO cells stably expressing taste-mGluR4; format: cell-based
T2 construct: expressed in transfected cells
Procedure: as §1, §2, §3

[2] = system: CHO cells transfected with non-recombinant pcDNA3.1 vector; assay: cAMP level in control CHO cells transfected with non-recombinant vector; format: cell-based, Chinese hamster; details: for cAMP level relative to controls: n=9; for change of cAMP concentration in control cells: non-recombinant vector
Procedure: as §1, §2

brain-mGluR4 [3] = molecular target: T1, brain-mGluR4; details: cited from earlier work
[4] = system: glossopharyngeal nerve / sensory afferents; details: cited from earlier work
chorda tympani nerve = chorda tympani nerve recordings; cited from earlier work
MSG taste detection = details: rats, behavioral assays; cited from earlier work

T2 sequence (P31423 309-912): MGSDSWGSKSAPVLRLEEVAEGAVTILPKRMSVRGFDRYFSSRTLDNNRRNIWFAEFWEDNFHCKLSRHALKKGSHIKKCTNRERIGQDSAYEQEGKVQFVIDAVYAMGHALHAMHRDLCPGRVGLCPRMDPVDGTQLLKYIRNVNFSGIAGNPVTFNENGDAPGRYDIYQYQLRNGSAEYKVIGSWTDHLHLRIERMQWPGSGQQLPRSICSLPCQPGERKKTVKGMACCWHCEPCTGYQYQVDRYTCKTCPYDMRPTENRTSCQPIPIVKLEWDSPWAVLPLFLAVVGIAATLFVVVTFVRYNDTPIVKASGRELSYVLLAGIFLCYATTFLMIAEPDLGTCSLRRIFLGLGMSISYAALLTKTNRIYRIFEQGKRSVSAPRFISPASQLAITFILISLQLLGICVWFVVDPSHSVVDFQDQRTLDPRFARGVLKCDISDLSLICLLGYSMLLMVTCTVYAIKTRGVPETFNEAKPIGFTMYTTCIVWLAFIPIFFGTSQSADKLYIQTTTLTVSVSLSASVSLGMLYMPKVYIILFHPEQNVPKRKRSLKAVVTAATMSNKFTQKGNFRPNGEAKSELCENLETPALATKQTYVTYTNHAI
T1 sequence (P31423 33-912): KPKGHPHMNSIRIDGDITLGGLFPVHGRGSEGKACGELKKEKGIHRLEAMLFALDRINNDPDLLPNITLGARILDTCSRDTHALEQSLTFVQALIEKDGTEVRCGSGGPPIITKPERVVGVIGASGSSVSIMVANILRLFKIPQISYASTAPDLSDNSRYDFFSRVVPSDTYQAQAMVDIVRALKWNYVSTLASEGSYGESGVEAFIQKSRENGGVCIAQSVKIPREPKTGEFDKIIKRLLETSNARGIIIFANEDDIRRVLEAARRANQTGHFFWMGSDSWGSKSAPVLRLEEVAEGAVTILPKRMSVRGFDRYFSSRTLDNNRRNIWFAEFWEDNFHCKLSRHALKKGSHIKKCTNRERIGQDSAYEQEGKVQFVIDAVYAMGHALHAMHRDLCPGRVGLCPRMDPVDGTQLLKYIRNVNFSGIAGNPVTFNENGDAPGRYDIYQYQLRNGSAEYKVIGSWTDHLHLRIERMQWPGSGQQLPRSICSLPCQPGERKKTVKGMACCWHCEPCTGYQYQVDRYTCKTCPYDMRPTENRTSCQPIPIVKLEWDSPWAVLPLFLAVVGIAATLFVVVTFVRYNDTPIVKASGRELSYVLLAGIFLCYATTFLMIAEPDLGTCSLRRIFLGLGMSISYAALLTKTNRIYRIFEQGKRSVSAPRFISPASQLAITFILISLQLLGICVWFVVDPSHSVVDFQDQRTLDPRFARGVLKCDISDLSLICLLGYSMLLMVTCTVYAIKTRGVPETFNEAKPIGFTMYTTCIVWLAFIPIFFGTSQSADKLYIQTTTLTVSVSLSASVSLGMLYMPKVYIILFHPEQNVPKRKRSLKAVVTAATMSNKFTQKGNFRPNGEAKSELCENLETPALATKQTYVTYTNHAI

Compound: N[C@@H](CCC(=O)O)C(=O)O [L-glutamate]
- EC50 (brain-mGluR4 [1]; CHO cells stably expressing brain-mGluR4, 10 μM forskolin, 1 mM IBMX): 2 µM
- threshold concentration for activating taste-mGluR4 (taste-mGluR4; CHO cells expressing taste-mGluR4): 30 µM
- EC50 (taste-mGluR4; CHO cells expressing taste-mGluR4, 10 μM forskolin, 1 mM IBMX, read-out: EC50 for L-glutamate for taste-mGluR4): 280 µM
- concentration needed for taste mGluR4 relative to brain-derived neurotransmitter mGluR4 (taste-mGluR4; CHO cells, taste vs brain mGluR4): about 100 fold
- cAMP response (taste-mGluR4; at concentrations of 30 μM or below): no response
- EC50 (taste-mGluR4; line with expression 2-fold lower than parallel brain-mGluR4 line, read-out: EC50, taste-mGluR4 CHO line): 250 µM
- EC50 (taste-mGluR4; line with expression 100-fold lower than parallel brain-mGluR4 line, read-out: EC50, taste-mGluR4 CHO line): 300 µM
- cAMP level relative to controls ([2]; 1 mM): 127±16%
- cAMP level relative to controls ([2]; 10 mM): 132±19%
- EC50 (brain-mGluR4 [3]; mGluR4a, literature ref 35, read-out: EC50 on mGluR4a, earlier reports): 5 µM
- taste nerve threshold ([4]; adult mice and rats): 2 to 10 mM
- threshold for glutamate taste responses in the glossopharyngeal nerve ([4]; juvenile mice): 100 µM

Compound: N[C@@H](CCC(=O)O)C(=O)[O-].[Na+] [L-MSG, monosodium L-glutamate]
- detection threshold in recordings from sensory afferents ([4]; adult rodents): 1 to 3 mM
- detection threshold in recordings from sensory afferents ([4]; juvenile rodents): 0.1 to 0.3 mM

Compound: C[C@](N)(CCP(=O)(O)O)C(=O)O [MAP4]
- block of taste nerve responses to glutamate and L-AP4 (chorda tympani nerve): fails to block

Compound: NC(CCP(=O)(O)O)C(=O)O [L-AP4]
- concentration above which the cAMP response saturates (brain-mGluR4 [1]; brain-mGluR4 CHO cells, FIG. 4): above 10 μM
- concentration near the MSG taste detection threshold (MSG taste detection): ~100 µM
- cAMP response (taste-mGluR4; 10 μM L-AP4): no response
- cAMP response (taste-mGluR4; 100 μM and 1 mM L-AP4): progressively larger responses
- change of cAMP concentration in control cells [2]: did not change
- EC50 (brain-mGluR4 [3]; brain mGluR4, literature ref 35, read-out: published EC50): 0.5 to 1 µM

Compound: N[C@H](CCC(=O)O)C(=O)O [D-glutamate]
- cAMP level relative to controls (brain-mGluR4 [1]; 1 MM D-glutamate, brain-mGluR4 cells): 126±17%
- cAMP level relative to controls (taste-mGluR4; 1 MM D-glutamate, taste-mGluR4 cells): 99±3%
- change of cAMP concentration in control cells [2]: did not alter cAMP concentrations
